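Method: 48-hour compound exposure of cells in 96-well plates, five concentrations, linear interpolation of endpoints. The concentration for 50% growth inhibition is given as GI50.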 Activity calls are given as the source filed them. No stated cut-off is given here; in the data, active = GI50 up to about 1.1 µM and inactive = higher.
Legend:
Experiment in all cases: NCI anticancer screen, dose series, 48 h
786-0 = system: 786-0
A549 = system: A549
ACHN = system: ACHN
CAKI-1 = system: CAKI-1
CCRF-CEM = system: CCRF-CEM
COLO 205 = system: COLO 205
DLD-1 = system: DLD-1
DMS-114 = system: DMS-114
DMS-273 = system: DMS-273
EKVX = system: EKVX
HCT-116 = system: HCT-116
HCT-15 = system: HCT-15
HOP-18 = system: HOP-18
HT-29 = system: HT-29
IGROV-1 = system: IGROV-1
K562 = system: K562
KM-20L2 = system: KM-20L2
KM12 = system: KM12
LOX IMVI = system: LOX IMVI
LXFL 529 = system: LXFL 529
M14 = system: M14
M19-MEL = system: M19-MEL
MOLT-4 = system: MOLT-4
Malme-3M = system: Malme-3M
NCI-H226 = system: NCI-H226
NCI-H23 = system: NCI-H23
NCI-H460 = system: NCI-H460
NCI-H522 = system: NCI-H522
OVCAR-3 = system: OVCAR-3
OVCAR-4 = system: OVCAR-4
OVCAR-5 = system: OVCAR-5
OVCAR-8 = system: OVCAR-8
RPMI-8226 = system: RPMI-8226
RXF 393 = system: RXF 393
RXF 631 = system: RXF 631
SF-268 = system: SF-268
SF-295 = system: SF-295
SF-539 = system: SF-539
SK-MEL-28 = system: SK-MEL-28
SK-MEL-2 = system: SK-MEL-2
SK-MEL-5 = system: SK-MEL-5
SK-OV-3 = system: SK-OV-3
SN12C = system: SN12C
SNB-19 = system: SNB-19
SNB-75 = system: SNB-75
SNB-78 = system: SNB-78
SW-620 = system: SW-620
TK-10 = system: TK-10
U-251 = system: U-251
UACC-257 = system: UACC-257
UACC-62 = system: UACC-62
UO-31 = system: UO-31
XF498 = system: XF498
A498 = system: A498
HCC 2998 = system: HCC 2998
HL-60 = system: HL-60
HOP-62 = system: HOP-62
HOP-92 = system: HOP-92
SR = system: SR

Compound: Cc1cc2c(=O)cc(-c3ccc(Cl)cc3)oc2c(C(=O)O)c1C
- GI50 (786-0): > 100 µM (inactive)
- GI50 (A549): > 100 µM (inactive)
- GI50 (ACHN): > 100 µM (inactive)
- GI50 (CAKI-1): > 100 µM (inactive)
- GI50 (CCRF-CEM): > 100 µM (inactive)
- GI50 (COLO 205): > 100 µM (inactive)
- GI50 (DLD-1): > 100 µM (inactive)
- GI50 (DMS-114): > 100 µM (inactive)
- GI50 (DMS-273): > 100 µM (inactive)
- GI50 (EKVX): > 100 µM (inactive)
- GI50 (HCT-116): > 100 µM (inactive)
- GI50 (HCT-15): > 100 µM
- GI50 (HOP-18): > 100 µM (inactive)
- GI50 (HT-29): > 100 µM (inactive)
- GI50 (IGROV-1): > 100 µM (inactive)
- GI50 (K562): > 100 µM (inactive)
- GI50 (KM-20L2): > 100 µM (inactive)
- GI50 (KM12): > 100 µM (inactive)
- GI50 (LOX IMVI): > 100 µM (inactive)
- GI50 (LXFL 529): > 100 µM (inactive)
- GI50 (M14): > 100 µM (inactive)
- GI50 (M19-MEL): > 100 µM (inactive)
- GI50 (MOLT-4): > 100 µM (inactive)
- GI50 (Malme-3M): > 100 µM (inactive)
- GI50 (NCI-H226): > 100 µM (inactive)
- GI50 (NCI-H23): > 100 µM (inactive)
- GI50 (NCI-H460): > 100 µM (inactive)
- GI50 (NCI-H522): 29.5 µM (inactive)
- GI50 (OVCAR-3): > 100 µM (inactive)
- GI50 (OVCAR-4): > 100 µM (inactive)
- GI50 (OVCAR-5): > 100 µM (inactive)
- GI50 (OVCAR-8): > 100 µM (inactive)
- GI50 (RPMI-8226): > 100 µM (inactive)
- GI50 (RXF 393): > 100 µM (inactive)
- GI50 (RXF 631): > 100 µM (inactive)
- GI50 (SF-268): > 100 µM (inactive)
- GI50 (SF-295): > 100 µM (inactive)
- GI50 (SF-539): > 100 µM (inactive)
- GI50 (SK-MEL-28): > 100 µM (inactive)
- GI50 (SK-MEL-2): > 100 µM (inactive)
- GI50 (SK-MEL-5): > 100 µM (inactive)
- GI50 (SK-OV-3): > 100 µM (inactive)
- GI50 (SN12C): > 100 µM (inactive)
- GI50 (SNB-19): > 100 µM (inactive)
- GI50 (SNB-75): > 100 µM (inactive)
- GI50 (SNB-78): > 100 µM (inactive)
- GI50 (SW-620): > 100 µM (inactive)
- GI50 (TK-10): > 100 µM (inactive)
- GI50 (U-251): > 100 µM (inactive)
- GI50 (UACC-257): > 100 µM (inactive)
- GI50 (UACC-62): > 100 µM (inactive)
- GI50 (UO-31): > 100 µM (inactive)
- GI50 (XF498): > 100 µM (inactive)

Compound: COC(=O)/C(=N\NC(C)(C)C)C(C(=O)OC)C(=O)C(=O)Nc1cc(Cl)ccc1Cl (configuration not stated)
- GI50 (786-0): > 100 µM (inactive)
- GI50 (A498): > 100 µM (inactive)
- GI50 (A549): > 100 µM (inactive)
- GI50 (ACHN): > 100 µM (inactive)
- GI50 (CAKI-1): > 100 µM (inactive)
- GI50 (CCRF-CEM): > 100 µM (inactive)
- GI50 (COLO 205): > 100 µM (inactive)
- GI50 (DLD-1): > 100 µM (inactive)
- GI50 (DMS-114): > 100 µM (inactive)
- GI50 (DMS-273): > 100 µM (inactive)
- GI50 (EKVX): > 100 µM (inactive)
- GI50 (HCC 2998): > 100 µM (inactive)
- GI50 (HCT-116): > 100 µM (inactive)
- GI50 (HCT-15): > 100 µM
- GI50 (HL-60): > 100 µM (inactive)
- GI50 (HOP-18): > 100 µM (inactive)
- GI50 (HOP-62): > 100 µM (inactive)
- GI50 (HOP-92): > 100 µM (inactive)
- GI50 (HT-29): > 100 µM (inactive)
- GI50 (IGROV-1): > 100 µM (inactive)
- GI50 (K562): > 100 µM (inactive)
- GI50 (KM-20L2): > 100 µM (inactive)
- GI50 (KM12): > 100 µM (inactive)
- GI50 (LOX IMVI): > 100 µM (inactive)
- GI50 (LXFL 529): > 100 µM (inactive)
- GI50 (M14): > 100 µM (inactive)
- GI50 (M19-MEL): > 100 µM (inactive)
- GI50 (MOLT-4): > 100 µM (inactive)
- GI50 (Malme-3M): > 100 µM (inactive)
- GI50 (NCI-H226): > 100 µM (inactive)
- GI50 (NCI-H23): > 100 µM (inactive)
- GI50 (NCI-H460): > 100 µM (inactive)
- GI50 (NCI-H522): > 100 µM (inactive)
- GI50 (OVCAR-3): > 100 µM (inactive)
- GI50 (OVCAR-4): > 100 µM (inactive)
- GI50 (OVCAR-5): > 100 µM (inactive)
- GI50 (OVCAR-8): > 100 µM (inactive)
- GI50 (RXF 393): > 100 µM (inactive)
- GI50 (RXF 631): > 100 µM (inactive)
- GI50 (SF-268): > 100 µM (inactive)
- GI50 (SF-295): > 100 µM (inactive)
- GI50 (SF-539): > 100 µM (inactive)
- GI50 (SK-MEL-28): > 100 µM (inactive)
- GI50 (SK-MEL-2): > 100 µM (inactive)
- GI50 (SK-MEL-5): > 100 µM (inactive)
- GI50 (SK-OV-3): > 100 µM (inactive)
- GI50 (SN12C): > 100 µM (inactive)
- GI50 (SNB-19): > 100 µM (inactive)
- GI50 (SNB-75): > 100 µM (inactive)
- GI50 (SNB-78): > 100 µM (inactive)
- GI50 (SR): > 100 µM (inactive)
- GI50 (SW-620): > 100 µM (inactive)
- GI50 (TK-10): > 100 µM (inactive)
- GI50 (U-251): > 100 µM (inactive)
- GI50 (UACC-257): > 100 µM (inactive)
- GI50 (UACC-62): > 100 µM (inactive)
- GI50 (UO-31): > 100 µM (inactive)
- GI50 (XF498): > 100 µM (inactive)

Compound: c1ccc2c(CN3CCC(C4CCN(Cc5cccc6ccccc56)CC4)CC3)cccc2c1
- GI50 (786-0): 16 µM (inactive)
- GI50 (A549): 38.3 µM (inactive)
- GI50 (ACHN): 36.1 µM (inactive)
- GI50 (COLO 205): 1.72 µM (inactive)
- GI50 (DLD-1): 2.09 µM (inactive)
- GI50 (DMS-114): 2.64 µM (inactive)
- GI50 (DMS-273): 6.73 µM (inactive)
- GI50 (HCC 2998): 1.09 µM (active)
- GI50 (HL-60): 1.98 µM (inactive)
- GI50 (HOP-18): 40.1 µM (inactive)
- GI50 (HOP-62): 14.7 µM (inactive)
- GI50 (HT-29): 3.11 µM (inactive)
- GI50 (K562): 1.53 µM (inactive)
- GI50 (KM-20L2): 2.81 µM (inactive)
- GI50 (LXFL 529): 5.74 µM (inactive)
- GI50 (M14): 1.92 µM (inactive)
- GI50 (M19-MEL): 6.64 µM (inactive)
- GI50 (MOLT-4): 5.7 µM (inactive)
- GI50 (Malme-3M): 2.4 µM (inactive)
- GI50 (NCI-H460): 19 µM (inactive)
- GI50 (NCI-H522): 12.9 µM (inactive)
- GI50 (OVCAR-3): 39.7 µM (inactive)
- GI50 (RPMI-8226): 3.66 µM (inactive)
- GI50 (RXF 393): 11.9 µM (inactive)
- GI50 (RXF 631): 12.2 µM (inactive)
- GI50 (SF-295): 7.64 µM (inactive)
- GI50 (SK-MEL-2): 6.21 µM (inactive)
- GI50 (SK-MEL-5): 4.22 µM (inactive)
- GI50 (SK-OV-3): 21.1 µM (inactive)
- GI50 (SN12C): > 63 µM (inactive)
- GI50 (SNB-78): 23.7 µM (inactive)
- GI50 (TK-10): 17.7 µM (inactive)
- GI50 (U-251): 11.3 µM (inactive)
- GI50 (UACC-257): 2.1 µM (inactive)
- GI50 (UACC-62): 5.64 µM (inactive)
- GI50 (XF498): 4.75 µM (inactive)

— ChEMBL document CHEMBL1201862, “PubChem BioAssay data set” (2004)
